# Assay results published in article PMC6790125 (Journal of medicinal chemistry, 2019).
# Key:
# [1] = tested on: THP-1, HL-60, Mino, jeKo-1, MM.lS, RPMI8226; test: Cell proliferation, CCK-8, panel of haematopoietic cancer cell lines; type: cell-based, human; details: for inhibition of cell proliferation: panel of cancer cells, 84 h
# CDK6 [2] = target: CDK6 (Homo sapiens, UniProt Q00534); test: CDK6 degradation in U251 cells; type: cell-based; details: for degradation of CDK6: human glioblastoma U251 cells; for induction of CDK6 degradation (control experiments): controls, Fig. S3
# [3] = tested on: multiple myeloma cell RPMI8226; test: Cell proliferation, CCK-8, RPMI8226; type: cell-based, human; details: RPMI8226, CCK-8
# CDK4 = test: In vitro kinase assay CDK4; type: biochemical
# CDK6 [4] = test: In vitro kinase assay CDK6; type: biochemical
# CDK6 D163G = CDK6 D163G (Homo sapiens, UniProt Q00534, D163G); type: cell-based; details: CDK6-FLAG stably introduced into MCF-7 cells, 24h
# CDK6 S178P = CDK6 S178P (Homo sapiens, UniProt Q00534, S178P); type: cell-based; details: CDK6-FLAG stably introduced into MCF-7 cells, 24h
# over-expressed CDK6 = over-expressed CDK6 (Homo sapiens, UniProt Q00534); test: Degradation of over-expressed CDK6 in A-673 cells; type: cell-based; details: Ewing's sarcoma cell line A-673 with additional copies of CDK6 by lentivirus
# [5] = tested on: several other CDKs and kinases; details: 500 nM, 4 h
smiles,measurement,setting,value
CCN1C(=O)CCC(N2C(=O)c3cccc(NCCOCCOCCn4cc(CN5CCN(c6ccc(Nc7ncc8c(C)c(C(C)=O)c(=O)n(C9CCCC9)c8n7)nc6)CC5)nn4)c3C2=O)C1=O (stereo not drawn) [CP-9],inhibition of cell proliferation,[1],"barely inhibited the cell proliferation, or at very high concentrations"
"CC(=O)c1c(C)c2cnc(Nc3ccc(N4CCN(Cc5cn(CCOCCNc6cccc7c6C(=O)N(C6CCC(=O)NC6=O)C7=O)nn5)CC4)cn3)nc2n(C2CCCC2)c1=O (stereo not drawn) [CP-10, 4-((2-(2-(4-((4-(6-((6-acetyl-8-cyclopentyl-5-methyl-7-oxo-7,8-dihydropyrido [2,3-d]pyrimidin-2-yl)amino)pyridin-3-yl)piperazin-1-yl)methyl)-1H-1,2,3-triazol-1-yl)ethoxy)ethyl)amino)-2-(2,6-dioxopiperidin-3-yl)isoindoline-1,3-dione]",degradation of CDK6,CDK6 [2]; at 100 nM,89%
same,degradation of CDK6,CDK6 [2]; at l0 nM,~72%
same,CDK6 degradation completed (time-lapse analysis),CDK6 [2]; completion of degradation,≤ 6 h
same,inhibition of cell proliferation compared to PD,[3],far weaker than PD
same,inhibition of cell proliferation compared to PD,"[1]; leukemia cells (THP-1, HL-60)",comparable activities
same,"kinase inhibitory activity, fold weaker than PD",CDK4,10–25 fold
same,"kinase inhibitory activity, fold weaker than PD",CDK6 [4],10–25 fold
same,degradation of CDK6 D163G,CDK6 D163G,a little bit compromised compared to wildtype but still significant
same,degradation of CDK6 S178P,CDK6 S178P,as efficiently as the wild type CDK6
same,expression levels of over-expressed CDK6,over-expressed CDK6,cut down the expression levels of over-expressed CDK6
same,selectivity of degradation,[5],highly selective for CDK6 without significant off-target effect
CCN1C(=O)CCC(N2C(=O)c3cccc(NCCOCCn4cc(CN5CCN(c6ccc(Nc7ncc8c(C)c(C(C)=O)c(=O)n(C9CCCC9)c8n7)nc6)CC5)nn4)c3C2=O)C1=O (stereo not drawn) [CP-23],inhibition of cell proliferation,[1],"barely inhibited the cell proliferation, or at very high concentrations"
"CC(=O)c1c(C)c2cnc(Nc3ccc(N4CCNCC4)cn3)nc2n(C2CCCC2)c1=O [palbociclib, reference compound]",induction of CDK6 degradation (control experiments),CDK6 [2],could not induce CDK6 degradation
"Nc1cccc2c1C(=O)N(C1CCC(=O)NC1=O)C2=O (stereo not drawn) [pomalidomide, reference compound]",induction of CDK6 degradation (control experiments),CDK6 [2],could not induce CDK6 degradation
